As a reminder, the IC50 is the concentration that gives 50% inhibition. A low value points to greater potency in that assay.

The source of these data is ChEMBL document CHEMBL4229383, “Antiproliferative efficacy of curcumin mimics through microtubule destabilization” (Eur J Med Chem, 2018).

Molecules are shown by their SMILES. The source made the active and inactive calls. The calls are words filed in the database; no cut-off is given here.

The subject of one data set is MCF7. Briefly: Cytotoxicity against human MCF7 cells preincubated for 4 hrs followed by incubation in compound free media for 24 hrs by MTT assay. Type of data set: functional, cell-based.
The test system of the next data set is A-431. Briefly: Cytotoxicity against human A431 cells preincubated for 4 hrs followed by incubation in compound free media for 24 hrs by MTT assay. The format is functional, cell-based.
The subject of another data set is DLD-1. Briefly: Cytotoxicity against human DLD1 cells preincubated for 4 hrs followed by incubation in compound free media for 24 hrs by MTT assay. The format is functional, cell-based. For orientation: Formazan colour is commonly taken as a measure of viable cells.
The nature of data set [1]: Inhibition of porcine brain tubulin polymerization measured every min for 1 hr. Set-up: species or system Sus scrofa.
The subject of a further data set is A549. Briefly: Cytotoxicity against human A549 cells preincubated for 4 hrs followed by incubation in compound free media for 24 hrs by MTT assay. Type of data set: functional, cell-based.
The test system of a further data set is WRL68. Briefly: Cytotoxicity against human WRL68 cells preincubated for 4 hrs followed by incubation in compound free media for 24 hrs by MTT assay. Type of data set: functional, cell-based.
Data set [2] deals with Mus musculus. The data set is described as follows: Toxicity in Swiss mouse implanted with mouse EAC cells assessed as body weight at 20 mg/kg, ip measured on day 12 post dose (reference value: 35.5g). Type of data set: organism-based. As to conditions: in vivo.
Data set [3] concerns Mus musculus. Briefly: Toxicity in Swiss mouse implanted with mouse EAC cells assessed as body weight at 20 mg/kg, ip measured on day 5 post dose (reference value: 23.7g). As to conditions: in vivo. Type of data set: organism-based.
Data set [4] relates to Mus musculus. Briefly: Toxicity in Swiss mouse implanted with mouse EAC cells assessed as body weight at 20 mg/kg, ip measured on day 9 post dose (reference value: 28.66g). The format is organism-based. As to conditions: in vivo.
The test system of data set [5] is Mus musculus. Briefly: Toxicity in Swiss mouse implanted with mouse EAC cells assessed as body weight at 20 mg/kg, ip measured on day 1 post dose (reference value: 22g). Type of data set: organism-based. As to conditions: in vivo.
Data set [6] relates to Ehrlich. Briefly: Antitumor activity against mouse EAC cells implanted in Swiss mouse assessed as tumor growth inhibition at 20 mg/kg, ip from day 1 to 9 and measured on day 12 post dose relative to control. The format is functional. The conditions noted are these: read-out: TGI.
For data set [7], the system named is Mus musculus. The data set is described as follows: Toxicity in Swiss mouse implanted with mouse EAC solid tumor cells assessed as body weight at 22 mg/kg, ip from day 1 to 9 and measured on day 13 post dose (reference value: 26.9g). The format is organism-based. The conditions noted are these: in vivo.
Data set [8] has as its system Mus musculus. Briefly: Toxicity in Swiss mouse implanted with mouse EAC cells assessed as body weight at 20 mg/kg, ip measured on day 9 post dose (reference value: 30.55g). As to conditions: in vivo. Type of data set: organism-based.
Data set [9] relates to Ehrlich. Briefly: Antitumor activity against mouse EAC cells implanted in Swiss mouse assessed as solid tumor growth inhibition at 22 mg/kg, ip from day 1 to 9 and measured on day 13 post dose relative to control. The format is functional. The conditions noted are these: read-out: TGI.
The test system of data set [10] is Mus musculus. Briefly: Toxicity in Swiss mouse implanted with mouse EAC cells assessed as mortality at 20 mg/kg, ip from day 1 to 9 and measured on day 12 post dose. Type of data set: organism-based. The conditions noted are these: in vivo.
Data set [11] concerns Mus musculus. Briefly: Toxicity in Swiss mouse implanted with mouse EAC cells assessed as body weight at 20 mg/kg, ip measured on day 5 post dose (reference value: 26.33g). Type of data set: organism-based. The conditions noted are these: in vivo.
For data set [12], the system named is Mus musculus. Briefly: Toxicity in Swiss mouse implanted with mouse EAC solid tumor cells assessed as body weight at 22 mg/kg, ip measured on day 5 post dose (reference value: 26.7 g). The format is organism-based. As to conditions: in vivo.
For data set [13], the system named is Mus musculus. Briefly: Toxicity in Swiss mouse implanted with mouse EAC solid tumor cells assessed as body weight at 22 mg/kg, ip measured on day 1 post dose (reference value: 25 g). The format is organism-based. As to conditions: in vivo.
The test system of data set [14] is Mus musculus. The data set is described as follows: Toxicity in Swiss mouse implanted with mouse EAC cells assessed as body weight at 20 mg/kg, ip measured on day 12 post dose (reference value: 32.5g). The conditions noted are these: in vivo. The format is organism-based.
The test system of data set [15] is Mus musculus. Briefly: Toxicity in Swiss mouse implanted with mouse EAC solid tumor cells assessed as body weight at 22 mg/kg, ip measured on day 9 post dose (reference value: 26.7 g). Type of data set: organism-based. As to conditions: in vivo.
In data set [16] the test system is Mus musculus. The data set is described as follows: Toxicity in Swiss mouse implanted with mouse EAC cells assessed as body weight at 20 mg/kg, ip measured on day 1 post dose (reference value: 24.77g). The format is organism-based. The conditions noted are these: in vivo.
The species named for the next data set is Sus scrofa. The data set is described as follows: Inhibition of porcine brain tubulin polymerization at 20 uM measured every min for 1 hr.

With `COc1cc([C@@H]2c3cc4c(cc3[C@H](O)[C@H]3COC(=O)[C@H]23)OCO4)cc(OC)c1OC` [PODOFILOX], the IC50 in the data set with MCF7 was 4.16 µM; in the data set on A-431 it was greater than 100 µM; with DLD-1 it was 0.11 µM; in data set [1], 0.78 µM; with A549, 5.61 µM; in the data set on WRL68, 3.02 µM.
Turning to `O=c1[nH]cc(F)c(=O)[nH]1` [FLUOROURACIL], the Activity with Mus musculus [2] came to 24.14 g; in the data set with Mus musculus [3], 22.57 g; with Mus musculus [4] it was 21.71 g; in the data set on Mus musculus [5], 22.85 g; in the data set on Mus musculus [7] it was 24.85 g; in the data set with Mus musculus [8], 24.57 g. Further, the Activity entry is on record as “Non-Toxic” in the data set with Mus musculus [10]; 25.85 g with Mus musculus [11]; 25.14 g with Mus musculus [12]; 26.42 g in the data set on Mus musculus [13]; 21.42 g with Mus musculus [14]; 24.71 g in the data set with Mus musculus [15]. Besides, in the data set with Mus musculus [16], the Activity is listed as 25.85 g. Also, in the data set with Ehrlich [6], the inhibition in vivo at 20 mg/kg was 96.4 to 96.8%. Besides, in the data set on Ehrlich [9], the inhibition in vivo at 22 mg/kg came out at 51%.
In the case of `COc1cc(/C=C/C(=O)CC(=O)/C=C/c2ccc(O)c(OC)c2)ccc1O` [CURCUMIN], the IC50 in the data set with MCF7 is 22.1 µM; in the data set on A-431, greater than 100 µM; in the data set with DLD-1 it was greater than 40 µM; in [1] it was 5.12 µM; in the data set on A549, 43.9 µM; in the data set on WRL68 it was 27.8 µM. Moreover, the inhibition entry in the data set filed under Sus scrofa was “Active”.
For the molecule `COc1cc(/C=C/C(=O)CC(=O)/C=C/c2ccc(O)cc2)ccc1O`, the IC50 in the data set with MCF7 was 92.1 µM; in the data set on A-431, greater than 100 µM; with DLD-1, greater than 40 µM; in the data set with A549 it was 28.2 µM; in the data set on WRL68, 26.3 µM.
With `O=C(/C=C/c1ccc(O)cc1)CC(=O)/C=C/c1ccc(O)cc1` [BISDEMETHOXYCURCUMIN], the IC50 was 48.9 µM with MCF7, greater than 100 µM with A-431, greater than 40 µM with DLD-1 and 45.4 µM in the data set with WRL68.
Turning to `O=C(/C=C/c1ccc2c(c1)OCO2)c1cccc(C(=O)/C=C/c2ccc3c(c2)OCO3)c1`, the IC50 with MCF7 was greater than 100 µM; in the data set with A-431 it was 10 µM; in the data set with DLD-1, 16.5 µM; with A549 it was 18.7 µM; in the data set on WRL68, greater than 100 µM.
Regarding `O=C(/C=C/c1ccc(/C=C/C(=O)c2ccc3c(c2)OCO3)cc1)c1ccc2c(c1)OCO2`, the IC50 in the data set with MCF7 is 30.6 µM; in the data set on A-431 it was greater than 100 µM; with DLD-1, greater than 40 µM; in the data set with A549 it was greater than 100 µM; in the data set with WRL68, 80.1 µM.
With `CC/C(=C(\c1ccccc1)c1ccc(OCCN(C)C)cc1)c1ccccc1` [TAMOXIFEN], the IC50 in the data set on MCF7 was 8.61 µM; in the data set on A-431, greater than 100 µM; with DLD-1 it was 16.3 µM.
